This note sets out measurements from patent US7745404B2, “Use of calcitonin and calcitonin-like peptides to treat and prevent multiple sclerosis” (Wisconsin Alumni Research Foundation, priority 2002, dated 2010).

Type in all cases: in vivo
The test system of series [1] is experimental autoimmune encephalomyelitis (EAE) in female 1α-OH KO mice. In words: EAE (murine model of MS) in female 1α-OH KO mice, Example 1. The procedure: To determine the effect of calcitonin on the murine model of MS, experimental autoimmune encephalomyelitis (EAE), 25-hydroxyvitamin D3-1α-hydroxylase knockout mice (1α-OH KO) were maintained on a purified diet containing 0.87% calcium and 1 ng 1,25-(OH)2D3 (Vit D) for two to three weeks prior to EAE immunization. EAE was induced at six to ten weeks of age by subcutaneous immunization of 200 μg of the immunodominant peptide to myelin oligodendrocyte glycoproprotein (MOG35-55).
The peptide was synthesized at University of Wisconsin Biotechnology Center using standard 9-fluorenyl-methoxy-carbonyl chemistry. The peptide was dissolved in Freund's complete adjuvant (CFA; Sigma; St. Louis, Mo.) containing 4 mg/ml of heat-inactivated Mycobacterium tuberculosis […] (Difco Laboratories; Detroit, Mich.).
Mice were injected with 200 ng of Bordetella pertussis toxin (List Biological Laboratories, Campbell, Calif.) on the day of immunization and 48 hours later. The mice were examined daily for clinical signs of EAE utilizing the following scoring system: 0, no sign; 1, limp tail; 2, hindlimb weakness; 3, hindlimb paralysis; 4, forelimb paralysis; 5, moribund or death.
Salmon calcitonin (sCT; Bachem California; Torrence, Calif.) was dissolved to a concentration of 1 mg/ml in a vehicle containing 150 mM NaCl, 1 mM HCl, and 2% heat inactivated sera. The serum used was from 1α-OH KO mice matched by sex to the group of mice receiving the treatment. SCT was chronically administered using Alzet osmotic minipumps model 1002 (Durect Corp.; Cupertino, Calif.) calibrated to deliver 0.25 μl/hour over a 15 day period.
Ten days after immunization, mice were weighed and the pumps were filled with either vehicle or sCT diluted to deliver 6 μg/kg of body weight per day to each mouse. The pumps were surgically placed subcutaneously in the upper back of mice anesthetized with 2% isofluorane. At the end of the study, successful delivery of the sCT was assessed by two methods. First, the fluid volume remaining in the pump reservoirs was measured. Second, the remaining sCT was pooled and intraperitoneally injected into 1α-knockout mice that were not included in the initial study. Serum calcium measurements were taken six hours after injection to determine if sCT maintained its bioactivity throughout the study. Blood samples were collected at multiple time-points throughout the study to monitor changes in serum calcium levels. Blood was obtained by the orbital bleed method. Approximately 150 μl was collected per mouse.
Statistical analysis was performed using the two-tailed Fisher exact probability test on incidence rates and the unpaired Student's t-test on all other measurements. Values of P<0.05 were considered statistically significant.

The nature of series [2]: Serum calcium in female C57BL/6J mice, Example 3. How it is done: Collected blood samples were centrifuged at 6000 rpm for 15 minutes; followed by another 60-second spin at 14000 rpm. Serum samples were diluted in 0.1% LaCl3 and serum calcium values were measured using a Perkin Elmer atomic absorption spectrometer.
Blood samples were collected at multiple time-points and prepared and analyzed as described above. Likewise, statistical analysis was as performed as noted above.

The test system of series [3] is EAE in female C57BL/6J mice. The series can be described thus: EAE in female C57BL/6J mice, sCT started prior to immunization, Example 5. How it is done: To determine the effect of calcitonin in C57BL/6J mice on EAE prior to immunization, female mice were maintained on a standard chow diet prior to and following EAE immunization.
(§1) EAE was induced as described above. Mice were injected with 200 ng of B. pertussis toxin on the day of immunization and 48 hours later.
(§2) sCT was prepared as described above. However, two days prior to immunization, mice were weighed and the pumps were filled with vehicle or 6 μg/kg per day of sCT of body weight to each mouse. The pumps were surgically placed subcutaneously in the upper back of mice anesthetized with 2% isofluorane. At the end of the study, successful delivery of the sCT was assessed by two methods. First, the fluid volume remaining in the pump reservoirs was measured. Second, the remaining sCT was pooled and intraperitoneally injected into C57BL/6J mice that were not included in the initial study. Serum calcium measurements were taken six hours after injection to determine if sCT maintained its bioactivity throughout the study.
Mice were examined daily, for over two weeks, for clinical signs of EAE utilizing the scoring system described above.
(§3) Blood samples were collected at multiple time-points and prepared and analyzed as described above. Likewise, statistical analysis was performed as noted above.

The test system of series [4] is EAE in female C57BL6h mice. In words: EAE in female C57BL6h mice, Example 2. The procedure:
To determine the effect of calcitonin on EAE in mice, female mice were maintained as described above. The strain of mouse used in this experiment was C57BL6 which was obtained from Harlan Labs and therefore should be designated C57BL6h. The only difference from the experiment above is that these mice were fed a regular chow diet (Formulab Chow 5008, PMI Labdiet).
as §1
as §2, with “One week after” for “However, two days prior to”, “vehicle,” for “vehicle or”, “μg/kg of sCT” for “μg/kg”, “day” for “day of sCT”, “into” for “into C57BL/6J”
Mice were examined daily, for over two weeks, for clinical signs of EAE utilizing the following scoring system described above.
as §3

As to Salmon calcitonin [sCT], the “% Sick” value in series [1] (female 1α-KO mice, 0.87% calcium + 1 ng Vitamin D diet, sCT 6 μg/kg per day by minipump from ten days after immunization) is 42.9%; in series [3] (female C57Bl/6J mice, standard chow, sCT 6 μg/kg per day from two days prior to immunization) it was 95.0%; in series [4] (sCT 6 μg/kg per day by minipump from one week after immunization), 25.0%. Further, the Severity in series [1] (female 1α-KO mice, 0.87% calcium + 1 ng Vitamin D diet, sCT 6 μg/kg per day by minipump, EAE score 0-5) worked out at 1.3 ± 0.6; in series [3] (female C57Bl/6J mice, standard chow, sCT 6 μg/kg per day from two days prior to immunization, EAE score 0-5), 2.9 ± 1.1; in series [4] (sCT 6 μg/kg per day by minipump from one week after immunization, EAE score 0-5) it was 2.0 ± 0.7. Also, the “Mean Onset Day” value in series [1] (female 1α-KO mice, 0.87% calcium + 1 ng Vitamin D diet, sCT 6 μg/kg per day by minipump, days post immunization) was 41 ± 11 days; in series [3] (female C57Bl/6J mice, standard chow, sCT 6 μg/kg per day from two days prior to immunization, days post immunization), 15 ± 2 days; in series [4] (sCT 6 μg/kg per day by minipump from one week after immunization, days post immunization) it was 14 ± 1 days. The Incidence in series [1] (female 1α-KO mice, 0.87% calcium + 1 ng Vitamin D diet, sCT 6 μg/kg per day by osmotic minipump from ten days after immunization, animals sick/total) was 3/7 sick; in series [3] (female C57Bl/6J mice, standard chow, sCT 6 μg/kg per day by minipump from two days prior to immunization, animals sick/total), 19/20 sick; in series [4] (sCT 6 μg/kg per day by minipump from one week after immunization, table title: 0.87% calcium + 1 ng Vitamin D diet (text: regular chow), animals sick/total) it was 2/8 sick. In addition, the EAE score entry in series [1] (female 1α-OH KO mice, compared to vehicle alone (FIG. 1, Table 2)) is “delayed and diminished the EAE score”; in series [3] (female C57BL6J mice administered 6 μg/kg of calcitonin from two days prior to immunization, compared to vehicle alone (FIG. 6)), “delayed and diminished the EAE score”; in series [4] (compared to vehicle alone (FIG. 3)) it was “delayed and diminished the EAE score”. Also, the serum calcium levels result in series [2] (6 μg/kg of calcitonin) and in series [2] (60 μg/kg of calcitonin) was “initially lowered” throughout.
